Reference: ChEMBL document CHEMBL3885861, “Open TG-GATES”

Species: Rattus norvegicus
Experiment: Open TG-GATES - Regimen: Daily Repeat
Format: toxicity, organism-based, Sprague-Dawley
Parameters: regimen Daily Repeat, gender Male, age 6 weeks
Conditions: in vivo, po, 30 mg/kg, route gavage, dose level Low; for APTT / Bas / Eos / Fbg / Hb / Ht / Lym / MCH / MCHC / MCV / Mono / Neu / PT / Plat / RBC / Ret / WBC: tissue Blood; for KIDNEY_L / KIDNEY_R / KIDNEY_TOTAL: tissue Kidney; for LIVER: tissue Liver; for A/G / ALP / ALT / AST / BUN / CRE / Ca / Cl / DBIL / GLC / IP / K / LDH / Na / PL / RALB / TBIL / TC / TG / TP / gamma-GTP: tissue Plasma

## C[C@]12CCC(=O)C=C1CC[C@@H]1[C@@H]2CC[C@@]2(C)[C@H]1CC[C@]2(C)O [METHYLTESTOSTERONE]
72 h, time 3 day
  TERMINAL_BW: 237.2 g
  APTT: 15.8 s
  Bas: 0%
  Eos: 1.2%
  Fbg: 296.2 mg/dL
  Hb: 13.3 g/dL
  Ht: 38.8%
  Lym: 75.2%
  MCH: 21.5 pg
  MCHC: 34.2%
  MCV: 63 fL
  Mono: 2.6%
  Neu: 20.8%
  PT: 12.8 s
  Plat: 111.2 x10_4/uL
  RBC: 617 x10_4/ul
  Ret: 6.6%
  WBC: 57.6 x10_2/uL
  KIDNEY_L: 1 g
  KIDNEY_R: 1 g
  KIDNEY_TOTAL: 2 g
  LIVER: 11.1 g
  A/G: 0.9
  ALP: 1870.2 IU/L
  ALT: 45.4 IU/L
  AST: 69.6 IU/L
  BUN: 15 mg/dL
  CRE: 0.2 mg/dL
  Ca: 11 mg/dL
  Cl: 107.6 meq/L
  DBIL: 0.018 mg/dL
  GLC: 195 mg/dL
  IP: 7.9 mg/dL
  K: 4.1 meq/L
  LDH: 58.2 IU/L
  Na: 144 meq/L
  PL: 144 mg/dL
  RALB: 2.7 g/dL
  TBIL: 0.03 mg/dL
  TC: 67.2 mg/dL
  TG: 123.6 mg/dL
  TP: 5.8 g/dL
  gamma-GTP: 1.4 IU/L
[…], time 7 day
  TERMINAL_BW: 271.8 g
  APTT: 16.5 s
  Bas: 0%
  Eos: 1%
  Fbg: 308.4 mg/dL
  Hb: 13.1 g/dL
  Ht: 38.1%
  Lym: 76.8%
  MCH: 21 pg
  MCHC: 34.4%
  MCV: 61 fL
  Mono: 3%
  Neu: 18.6%
  PT: 13 s
  Plat: 111.9 x10_4/uL
  RBC: 625.6 x10_4/ul
  Ret: 5.8%
  WBC: 78.3 x10_2/uL
  KIDNEY_L: 1.1 g
  KIDNEY_R: 1.1 g
  KIDNEY_TOTAL: 2.3 g
  LIVER: 12.5 g
  A/G: 0.9
  ALP: 1824.8 IU/L
  ALT: 46.8 IU/L
  AST: 75.2 IU/L
  BUN: 15 mg/dL
  CRE: 0.2 mg/dL
  Ca: 10.9 mg/dL
  Cl: 106 meq/L
  DBIL: 0.02 mg/dL
  GLC: 190.4 mg/dL
  IP: 7.6 mg/dL
  K: 4.1 meq/L
  LDH: 63.6 IU/L
  Na: 142.4 meq/L
  PL: 133 mg/dL
  RALB: 2.7 g/dL
  TBIL: 0.026 mg/dL
  TC: 54.6 mg/dL
  TG: 133 mg/dL
  TP: 5.8 g/dL
  gamma-GTP: 1.2 IU/L
[…], time 14 day
  TERMINAL_BW: 329.8 g
  APTT: 17.7 s
  Bas: 0.2%
  Eos: 1%
  Fbg: 289.2 mg/dL
  Hb: 14.4 g/dL
  Ht: 41.7%
  Lym: 79.2%
  MCH: 20.6 pg
  MCHC: 34.6%
  MCV: 59.6 fL
  Mono: 2.4%
  Neu: 16%
  PT: 13.3 s
  Plat: 114.4 x10_4/uL
  RBC: 700.2 x10_4/ul
  Ret: 3.9%
  WBC: 96.1 x10_2/uL
  KIDNEY_L: 1.3 g
  KIDNEY_R: 1.2 g
  KIDNEY_TOTAL: 2.5 g
  LIVER: 14.5 g
  A/G: 0.8
  ALP: 1301 IU/L
  ALT: 49.8 IU/L
  AST: 72.8 IU/L
  BUN: 16.4 mg/dL
  CRE: 0.2 mg/dL
  Ca: 10.5 mg/dL
  Cl: 106.8 meq/L
  DBIL: 0.02 mg/dL
  GLC: 192.6 mg/dL
  IP: 7.1 mg/dL
  K: 4 meq/L
  LDH: 132.6 IU/L
  Na: 142.2 meq/L
  PL: 134.2 mg/dL
  RALB: 2.7 g/dL
  TBIL: 0.026 mg/dL
  TC: 54 mg/dL
  TG: 178.6 mg/dL
  TP: 5.9 g/dL
  gamma-GTP: 1.2 IU/L
[…], time 28 day
  TERMINAL_BW: 409.3 g
  APTT: 19.2 s
  Bas: 0%
  Eos: 1.4%
  Fbg: 300.2 mg/dL
  Hb: 15.7 g/dL
  Ht: 44.9%
  Lym: 75.8%
  MCH: 19.5 pg
  MCHC: 35%
  MCV: 55.6 fL
  Mono: 2.6%
  Neu: 20.2%
  PT: 13.1 s
  Plat: 101.6 x10_4/uL
  RBC: 809.2 x10_4/ul
  Ret: 2.2%
  WBC: 84 x10_2/uL
  KIDNEY_L: 1.4 g
  KIDNEY_R: 1.4 g
  KIDNEY_TOTAL: 2.9 g
  LIVER: 17.1 g
  A/G: 0.8
  ALP: 1236.2 IU/L
  ALT: 43.6 IU/L
  AST: 66.8 IU/L
  BUN: 16.6 mg/dL
  CRE: 0.2 mg/dL
  Ca: 11.1 mg/dL
  Cl: 105.2 meq/L
  DBIL: 0.022 mg/dL
  GLC: 192 mg/dL
  IP: 6.7 mg/dL
  K: 3.9 meq/L
  LDH: 76.6 IU/L
  Na: 143.6 meq/L
  PL: 141.4 mg/dL
  RALB: 2.9 g/dL
  TBIL: 0.034 mg/dL
  TC: 56.2 mg/dL
  TG: 214 mg/dL
  TP: 6.3 g/dL
  gamma-GTP: 1 IU/L
